Measured values as given in the kinase profiling compilation of Christmann-Franck et al. (2016).

Experiments:
Assay in all cases: radiometric filter-binding kinase assay
PIM3 (human) = PIM3 (human) (UniProt Q86V86)
CSNK2A1 (human) = CSNK2A1 (human) (UniProt P68400)
INSRR (human) = INSRR (human) (UniProt P14616)
MAP2K6 (human) = MAP2K6 (human) (UniProt P52564)
[1] = system: SGK1 (human), O00141 [S422D]
RPS6KA3 KD1 KD2 (human) = RPS6KA3 KD1 KD2 (human) (UniProt P51812)
BRSK1 (human) = BRSK1 (human) (UniProt Q8TDC3)
MAPKAPK5 (human) = MAPKAPK5 (human) (UniProt Q8IW41)
MST4 (human) = MST4 (human) (UniProt Q9P289)
ERBB4 (human) = ERBB4 (human) (UniProt Q15303)
MAP2K2 (human) = MAP2K2 (human) (UniProt P36507)
DYRK2 (human) = DYRK2 (human) (UniProt Q92630)
TAOK1 (human) = TAOK1 (human) (UniProt Q7L7X3)
FGFR1 (human) = FGFR1 (human) (UniProt P11362)
PHKG1 (human) = PHKG1 (human) (UniProt Q16816)
MAPK10 (human) = MAPK10 (human) (UniProt P53779)
EEF2K (human) = EEF2K (human) (UniProt O00418)
FLT1 (human) = FLT1 (human) (UniProt P17948)
AURKB (human) = AURKB (human) (UniProt Q96GD4)
MAPK12 (human) = MAPK12 (human) (UniProt P53778)
MAPKAPK3 (human) = MAPKAPK3 (human) (UniProt Q16644)
MELK (human) = MELK (human) (UniProt Q14680)
CHEK1 (human) = CHEK1 (human) (UniProt O14757)
CDK2 CCNA2 (human) = CDK2 CCNA2 (human) (UniProt P20248+P24941)
PIM2 (human) = PIM2 (human) (UniProt Q9P1W9)
GCK (human) = GCK (human) (UniProt Q12851)
[2] = system: PAK2 (human), Q13177 [T402E]
PRKACA (human) = PRKACA (human) (UniProt P17612)
RIPK2 (human) = RIPK2 (human) (UniProt O43353)
AURKA (human) = AURKA (human) (UniProt O14965)
MAPK15 (human) = MAPK15 (human) (UniProt Q8TD08)
SRPK1 (human) = SRPK1 (human) (UniProt Q96SB4)
PRKCA (human) = PRKCA (human) (UniProt P17252)
MINK1 (human) = MINK1 (human) (UniProt Q8N4C8)
EPHA2 (human) = EPHA2 (human) (UniProt P29317)
BTK (human) = BTK (human) (UniProt Q06187)

Chain of MELK (human) (Q14680 whole entry, looked up): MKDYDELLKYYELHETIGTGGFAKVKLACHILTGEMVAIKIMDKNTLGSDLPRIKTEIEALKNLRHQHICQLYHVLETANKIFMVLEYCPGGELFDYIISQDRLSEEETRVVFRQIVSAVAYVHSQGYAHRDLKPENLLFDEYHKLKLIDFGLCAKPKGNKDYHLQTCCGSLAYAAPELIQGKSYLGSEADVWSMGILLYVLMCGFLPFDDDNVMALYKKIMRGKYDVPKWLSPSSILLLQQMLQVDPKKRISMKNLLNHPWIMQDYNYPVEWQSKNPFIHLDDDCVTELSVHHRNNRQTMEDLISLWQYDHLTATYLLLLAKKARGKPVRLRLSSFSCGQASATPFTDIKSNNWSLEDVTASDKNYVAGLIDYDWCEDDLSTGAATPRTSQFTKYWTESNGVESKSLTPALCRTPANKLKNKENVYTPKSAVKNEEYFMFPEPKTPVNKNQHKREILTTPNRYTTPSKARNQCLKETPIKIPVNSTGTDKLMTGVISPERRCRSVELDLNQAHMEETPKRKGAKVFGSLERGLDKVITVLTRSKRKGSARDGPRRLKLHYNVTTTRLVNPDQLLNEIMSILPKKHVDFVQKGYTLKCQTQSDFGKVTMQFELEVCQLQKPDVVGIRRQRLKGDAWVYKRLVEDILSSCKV
Chain of SGK1 (human), O00141 [S422D] (O00141 whole entry S422D, looked up): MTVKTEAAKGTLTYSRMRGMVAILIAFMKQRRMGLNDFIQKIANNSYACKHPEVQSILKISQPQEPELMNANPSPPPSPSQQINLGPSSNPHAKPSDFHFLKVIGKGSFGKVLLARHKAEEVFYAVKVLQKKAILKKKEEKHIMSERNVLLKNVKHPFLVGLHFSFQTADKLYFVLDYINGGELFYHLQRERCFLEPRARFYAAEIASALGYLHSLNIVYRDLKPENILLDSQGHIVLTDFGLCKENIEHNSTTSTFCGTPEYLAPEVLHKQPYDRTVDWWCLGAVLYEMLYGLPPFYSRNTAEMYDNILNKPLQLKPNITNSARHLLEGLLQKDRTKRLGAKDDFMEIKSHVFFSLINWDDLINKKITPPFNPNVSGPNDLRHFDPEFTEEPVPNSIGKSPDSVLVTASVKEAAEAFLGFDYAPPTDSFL
Chain of SRPK1 (human) (Q96SB4 whole entry, looked up): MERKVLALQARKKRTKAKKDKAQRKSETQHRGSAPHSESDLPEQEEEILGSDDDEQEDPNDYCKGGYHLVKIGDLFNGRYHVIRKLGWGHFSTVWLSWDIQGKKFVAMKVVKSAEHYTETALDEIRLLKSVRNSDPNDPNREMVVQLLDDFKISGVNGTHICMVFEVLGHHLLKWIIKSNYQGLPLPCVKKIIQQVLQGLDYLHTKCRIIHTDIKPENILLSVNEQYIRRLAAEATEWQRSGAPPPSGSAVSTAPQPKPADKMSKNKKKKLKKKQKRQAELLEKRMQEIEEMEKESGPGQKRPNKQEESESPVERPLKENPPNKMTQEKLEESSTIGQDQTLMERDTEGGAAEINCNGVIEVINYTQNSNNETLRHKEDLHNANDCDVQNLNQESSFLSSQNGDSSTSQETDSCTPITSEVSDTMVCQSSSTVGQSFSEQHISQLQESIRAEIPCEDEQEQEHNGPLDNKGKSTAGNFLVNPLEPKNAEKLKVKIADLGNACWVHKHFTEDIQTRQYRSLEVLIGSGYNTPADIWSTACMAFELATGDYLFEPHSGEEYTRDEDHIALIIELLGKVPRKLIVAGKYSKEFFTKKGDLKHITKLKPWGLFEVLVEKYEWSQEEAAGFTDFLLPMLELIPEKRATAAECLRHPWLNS
Chain of MAPKAPK3 (human) (Q16644 whole entry, looked up): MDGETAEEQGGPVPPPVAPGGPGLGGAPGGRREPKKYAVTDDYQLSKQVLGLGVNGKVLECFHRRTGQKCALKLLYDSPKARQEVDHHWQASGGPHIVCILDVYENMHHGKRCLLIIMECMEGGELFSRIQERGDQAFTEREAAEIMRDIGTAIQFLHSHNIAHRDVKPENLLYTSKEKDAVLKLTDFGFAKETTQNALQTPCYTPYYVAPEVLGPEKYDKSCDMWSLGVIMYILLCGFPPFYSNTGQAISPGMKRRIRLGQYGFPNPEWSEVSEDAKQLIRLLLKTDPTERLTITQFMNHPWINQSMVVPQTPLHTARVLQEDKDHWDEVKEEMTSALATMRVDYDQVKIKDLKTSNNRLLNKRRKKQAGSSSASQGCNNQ
Chain of EEF2K (human) (O00418 whole entry, looked up): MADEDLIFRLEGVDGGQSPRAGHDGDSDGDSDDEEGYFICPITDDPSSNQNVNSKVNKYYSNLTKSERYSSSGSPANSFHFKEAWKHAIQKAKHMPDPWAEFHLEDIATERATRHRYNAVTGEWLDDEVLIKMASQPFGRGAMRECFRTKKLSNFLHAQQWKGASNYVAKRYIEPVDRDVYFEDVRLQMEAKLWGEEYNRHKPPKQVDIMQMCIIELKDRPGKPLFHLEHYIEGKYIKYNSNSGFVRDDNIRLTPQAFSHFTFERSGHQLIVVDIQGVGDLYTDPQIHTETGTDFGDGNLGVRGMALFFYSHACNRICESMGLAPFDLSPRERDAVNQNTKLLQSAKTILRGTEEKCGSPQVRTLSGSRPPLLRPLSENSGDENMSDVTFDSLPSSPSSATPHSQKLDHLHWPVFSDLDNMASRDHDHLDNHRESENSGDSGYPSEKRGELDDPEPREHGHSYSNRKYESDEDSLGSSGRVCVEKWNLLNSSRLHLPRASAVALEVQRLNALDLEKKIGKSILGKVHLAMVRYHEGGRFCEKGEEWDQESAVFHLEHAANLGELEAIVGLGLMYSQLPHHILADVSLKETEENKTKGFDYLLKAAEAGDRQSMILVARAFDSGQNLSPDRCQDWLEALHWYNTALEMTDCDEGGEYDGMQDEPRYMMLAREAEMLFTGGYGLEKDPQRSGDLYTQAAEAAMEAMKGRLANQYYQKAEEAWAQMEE
Chain of MAP2K6 (human) (P52564 whole entry, looked up): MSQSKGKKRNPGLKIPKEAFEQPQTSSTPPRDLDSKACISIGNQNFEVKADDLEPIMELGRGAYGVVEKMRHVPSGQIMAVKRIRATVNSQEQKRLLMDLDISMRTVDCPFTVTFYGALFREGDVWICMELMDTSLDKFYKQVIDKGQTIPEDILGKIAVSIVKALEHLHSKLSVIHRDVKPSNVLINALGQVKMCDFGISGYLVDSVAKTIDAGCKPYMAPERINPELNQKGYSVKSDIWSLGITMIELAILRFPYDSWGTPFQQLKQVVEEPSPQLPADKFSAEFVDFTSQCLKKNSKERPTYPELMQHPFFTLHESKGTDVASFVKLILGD
Chain of CSNK2A1 (human) (P68400 whole entry, looked up): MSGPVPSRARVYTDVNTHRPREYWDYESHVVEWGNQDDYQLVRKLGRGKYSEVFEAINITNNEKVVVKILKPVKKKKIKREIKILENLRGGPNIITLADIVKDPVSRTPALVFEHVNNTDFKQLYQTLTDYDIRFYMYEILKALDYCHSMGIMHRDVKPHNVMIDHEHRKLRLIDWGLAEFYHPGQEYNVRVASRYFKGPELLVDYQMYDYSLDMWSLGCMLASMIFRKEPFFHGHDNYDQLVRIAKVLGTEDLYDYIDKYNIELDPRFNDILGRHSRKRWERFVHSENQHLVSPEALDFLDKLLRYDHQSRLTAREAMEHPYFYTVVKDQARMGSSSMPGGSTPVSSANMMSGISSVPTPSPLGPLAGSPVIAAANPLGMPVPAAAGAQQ
Chain of FLT1 (human) (P17948 whole entry, looked up): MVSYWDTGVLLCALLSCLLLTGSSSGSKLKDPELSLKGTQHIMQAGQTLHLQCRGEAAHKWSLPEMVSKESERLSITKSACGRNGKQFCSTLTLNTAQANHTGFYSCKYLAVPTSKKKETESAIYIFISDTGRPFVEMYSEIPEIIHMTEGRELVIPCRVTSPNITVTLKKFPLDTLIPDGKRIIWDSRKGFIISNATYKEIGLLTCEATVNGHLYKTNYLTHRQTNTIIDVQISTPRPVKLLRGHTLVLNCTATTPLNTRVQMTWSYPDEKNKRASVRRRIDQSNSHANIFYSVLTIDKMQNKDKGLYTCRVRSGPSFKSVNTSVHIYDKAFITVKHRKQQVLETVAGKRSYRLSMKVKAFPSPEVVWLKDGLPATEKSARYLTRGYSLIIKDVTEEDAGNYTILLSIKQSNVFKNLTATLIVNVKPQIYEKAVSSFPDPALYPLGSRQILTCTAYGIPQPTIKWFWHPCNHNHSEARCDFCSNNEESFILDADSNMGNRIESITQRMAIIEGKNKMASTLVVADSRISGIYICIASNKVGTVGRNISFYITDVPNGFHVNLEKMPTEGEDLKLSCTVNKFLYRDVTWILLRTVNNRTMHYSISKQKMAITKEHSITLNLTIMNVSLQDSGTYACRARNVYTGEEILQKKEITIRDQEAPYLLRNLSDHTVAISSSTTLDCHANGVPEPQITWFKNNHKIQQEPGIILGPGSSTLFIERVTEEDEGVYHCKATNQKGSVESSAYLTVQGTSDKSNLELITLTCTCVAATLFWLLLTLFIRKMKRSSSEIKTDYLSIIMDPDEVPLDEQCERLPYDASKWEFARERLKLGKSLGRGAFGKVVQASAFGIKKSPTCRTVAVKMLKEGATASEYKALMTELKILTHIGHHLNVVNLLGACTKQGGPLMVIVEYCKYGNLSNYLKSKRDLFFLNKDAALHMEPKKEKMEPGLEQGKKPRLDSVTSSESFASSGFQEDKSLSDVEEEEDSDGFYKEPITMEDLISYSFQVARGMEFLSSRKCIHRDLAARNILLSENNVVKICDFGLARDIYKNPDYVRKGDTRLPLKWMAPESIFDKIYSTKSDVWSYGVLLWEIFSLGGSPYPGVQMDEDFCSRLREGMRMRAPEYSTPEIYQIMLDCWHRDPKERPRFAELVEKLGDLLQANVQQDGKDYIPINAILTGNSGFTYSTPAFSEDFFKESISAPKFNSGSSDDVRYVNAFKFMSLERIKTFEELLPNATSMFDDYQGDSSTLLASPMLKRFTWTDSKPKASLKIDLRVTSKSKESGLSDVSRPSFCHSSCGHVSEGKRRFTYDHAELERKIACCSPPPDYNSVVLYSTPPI

residual activity (PIM3 (human); compound 0.01 µM): 17% | residual activity (PIM3 (human); compound 0.1 µM): 10% | residual activity (PIM3 (human); compound 1.0 µM): 10% | residual activity (CSNK2A1 (human); compound 0.01 µM): 106% | residual activity (CSNK2A1 (human); compound 0.1 µM): 108% | residual activity (CSNK2A1 (human); compound 1.0 µM): 80% | residual activity (INSRR (human); compound 0.01 µM): 47% | residual activity (INSRR (human); compound 0.1 µM): 12% | residual activity (INSRR (human); compound 1.0 µM): 9% | residual activity (MAP2K6 (human); compound 0.01 µM): 10% | residual activity (MAP2K6 (human); compound 0.1 µM): 13% | residual activity (MAP2K6 (human); compound 1.0 µM): 5% | residual activity ([1]; compound 0.01 µM): 79% | residual activity ([1]; compound 0.1 µM): 32% | residual activity ([1]; compound 1.0 µM): 10% | residual activity (RPS6KA3 KD1 KD2 (human); compound 0.01 µM): 16% | residual activity (RPS6KA3 KD1 KD2 (human); compound 0.1 µM): 7% | residual activity (RPS6KA3 KD1 KD2 (human); compound 1.0 µM): 6% | residual activity (BRSK1 (human); compound 0.01 µM): 61% | residual activity (BRSK1 (human); compound 0.1 µM): 3% | residual activity (BRSK1 (human); compound 1.0 µM): 1% | residual activity (MAPKAPK5 (human); compound 0.01 µM): 81% | residual activity (MAPKAPK5 (human); compound 0.1 µM): 15% | residual activity (MAPKAPK5 (human); compound 1.0 µM): 2% | residual activity (MST4 (human); compound 0.01 µM): 86% | residual activity (MST4 (human); compound 0.1 µM): 26% | residual activity (MST4 (human); compound 1.0 µM): 20% | residual activity (ERBB4 (human); compound 0.01 µM): 96% | residual activity (ERBB4 (human); compound 0.1 µM): 63% | residual activity (ERBB4 (human); compound 1.0 µM): 14% | residual activity (MAP2K2 (human); compound 0.01 µM): 32% | residual activity (MAP2K2 (human); compound 0.1 µM): 17% | residual activity (MAP2K2 (human); compound 1.0 µM): 14% | residual activity (DYRK2 (human); compound 0.01 µM): 41% | residual activity (DYRK2 (human); compound 0.1 µM): 9% | residual activity (DYRK2 (human); compound 1.0 µM): 4% | residual activity (TAOK1 (human); compound 0.01 µM): 53% | residual activity (TAOK1 (human); compound 0.1 µM): 15% | residual activity (TAOK1 (human); compound 1.0 µM): 7% | residual activity (FGFR1 (human); compound 0.01 µM): 53% | residual activity (FGFR1 (human); compound 0.1 µM): 22% | residual activity (FGFR1 (human); compound 1.0 µM): 3% | residual activity (PHKG1 (human); compound 0.1 µM): 1% | residual activity (PHKG1 (human); compound 1.0 µM): 1% | residual activity (MAPK10 (human); compound 0.01 µM): 65% | residual activity (MAPK10 (human); compound 0.1 µM): 30% | residual activity (MAPK10 (human); compound 1.0 µM): 26% | residual activity (EEF2K (human); compound 0.01 µM): 105% | residual activity (EEF2K (human); compound 0.1 µM): 97% | residual activity (EEF2K (human); compound 1.0 µM): 79% | residual activity (FLT1 (human); compound 0.01 µM): 17% | residual activity (FLT1 (human); compound 0.1 µM): 13% | residual activity (FLT1 (human); compound 1.0 µM): 4% | residual activity (AURKB (human); compound 0.01 µM): 49% | residual activity (AURKB (human); compound 0.1 µM): 46% | residual activity (AURKB (human); compound 1.0 µM): 39% | residual activity (MAPK12 (human); compound 0.01 µM): 76% | residual activity (MAPK12 (human); compound 0.1 µM): 29% | residual activity (MAPK12 (human); compound 1.0 µM): 6% | residual activity (MAPKAPK3 (human); compound 0.01 µM): 91% | residual activity (MAPKAPK3 (human); compound 0.1 µM): 74% | residual activity (MAPKAPK3 (human); compound 1.0 µM): 29% | residual activity (MELK (human); compound 0.01 µM): 18% | residual activity (MELK (human); compound 0.1 µM): 10% | residual activity (MELK (human); compound 1.0 µM): 5% | residual activity (CHEK1 (human); compound 0.01 µM): 11% | residual activity (CHEK1 (human); compound 0.1 µM): 4% | residual activity (CHEK1 (human); compound 1.0 µM): 3% | residual activity (CDK2 CCNA2 (human); compound 0.01 µM): 18% | residual activity (CDK2 CCNA2 (human); compound 0.1 µM): 9% | residual activity (CDK2 CCNA2 (human); compound 1.0 µM): 8% | residual activity (PIM2 (human); compound 0.01 µM): 93% | residual activity (PIM2 (human); compound 0.1 µM): 30% | residual activity (PIM2 (human); compound 1.0 µM): 4% | residual activity (GCK (human); compound 0.01 µM): 6% | residual activity (GCK (human); compound 0.1 µM): 4% | residual activity (GCK (human); compound 1.0 µM): 2% | residual activity ([2]; compound 0.01 µM): 71% | residual activity ([2]; compound 0.1 µM): 19% | residual activity ([2]; compound 1.0 µM): 4% | residual activity (PRKACA (human); compound 0.01 µM): 29% | residual activity (PRKACA (human); compound 0.1 µM): 5% | residual activity (PRKACA (human); compound 1.0 µM): 2% | residual activity (RIPK2 (human); compound 0.01 µM): 80% | residual activity (RIPK2 (human); compound 0.1 µM): 26% | residual activity (RIPK2 (human); compound 1.0 µM): 9% | residual activity (AURKA (human); compound 0.01 µM): 28% | residual activity (AURKA (human); compound 0.1 µM): 4% | residual activity (AURKA (human); compound 1.0 µM): 5% | residual activity (SRPK1 (human); compound 0.01 µM): 89% | residual activity (SRPK1 (human); compound 0.1 µM): 53% | residual activity (SRPK1 (human); compound 1.0 µM): 11% | residual activity (PRKCA (human); compound 0.01 µM): 79% | residual activity (PRKCA (human); compound 0.1 µM): 44% | residual activity (MINK1 (human); compound 0.01 µM): 4% | residual activity (MINK1 (human); compound 0.1 µM): 3% | residual activity (MINK1 (human); compound 1.0 µM): 2% | residual activity (EPHA2 (human); compound 0.01 µM): 92% | residual activity (EPHA2 (human); compound 0.1 µM): 53% | residual activity (EPHA2 (human); compound 1.0 µM): 19% | residual activity (BTK (human); compound 0.01 µM): 49% | residual activity (BTK (human); compound 0.1 µM): 11% | residual activity (BTK (human); compound 1.0 µM): 9%
SMILES: CNC(=O)C1[C@H]2O[C@@](C)([C@@H]1N)n1c3ccccc3c3c4c(c5c6ccccc6n2c5c31)C(=O)NC4 (stereo partly specified)
residual activity (MAPK15 (human); compound 0.01 µM): 48% | residual activity (MAPK15 (human); compound 0.1 µM): 8% | residual activity (MAPK15 (human); compound 1.0 µM): 11%
